Assay: Stability of FDC dosage forms (in words)
Type: physicochemical
Details: after 6 months storage at accelerated conditions; effect seems concentration dependent

Structure (SMILES): N=C(N)NCCC[C@H](N)C(=O)O [L-arginine]
- suppression of degradation of BI 1356 free base in FDC combinations with metformin HCl: able to suppress degradation
